From ChEMBL document CHEMBL1155519, “Discovery of N-phenyl-4-(thiazol-5-yl)pyrimidin-2-amine aurora kinase inhibitors” (J Med Chem, 2010)
Values after ≈ are worked out from the molar mass of the structure shown. Active and inactive are the calls of the source. No cut-off for these calls is given here.

Legend:
A2780 = assay: Cytotoxicity against human A2780 cells after 96 hrs by MTT assay; type: functional, cell-based; settings: A2780, 96 h
MIA PaCa-2 = assay: Cytotoxicity against human MIAPaCa2 cells after 96 hrs by MTT assay; type: functional, cell-based; settings: MIA PaCa-2, 96 h
[1] = target: Cyclin-dependent kinase 7/ cyclin H (Homo sapiens, UniProt P50613); assay: Inhibition of CDK7/Cyclin H; type: protein-complex assay
Chain of Cyclin-dependent kinase 7/ cyclin H (P51946 whole entry): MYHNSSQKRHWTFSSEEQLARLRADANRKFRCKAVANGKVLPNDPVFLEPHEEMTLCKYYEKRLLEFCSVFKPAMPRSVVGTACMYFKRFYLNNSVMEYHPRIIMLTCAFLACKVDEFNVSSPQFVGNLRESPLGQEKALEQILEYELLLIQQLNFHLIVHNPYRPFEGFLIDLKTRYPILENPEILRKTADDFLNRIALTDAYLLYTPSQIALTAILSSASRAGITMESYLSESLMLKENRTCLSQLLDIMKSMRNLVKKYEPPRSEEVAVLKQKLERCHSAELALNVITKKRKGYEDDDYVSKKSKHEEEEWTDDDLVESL
Chain of Cyclin-dependent kinase 7/ cyclin H (P50613 whole entry): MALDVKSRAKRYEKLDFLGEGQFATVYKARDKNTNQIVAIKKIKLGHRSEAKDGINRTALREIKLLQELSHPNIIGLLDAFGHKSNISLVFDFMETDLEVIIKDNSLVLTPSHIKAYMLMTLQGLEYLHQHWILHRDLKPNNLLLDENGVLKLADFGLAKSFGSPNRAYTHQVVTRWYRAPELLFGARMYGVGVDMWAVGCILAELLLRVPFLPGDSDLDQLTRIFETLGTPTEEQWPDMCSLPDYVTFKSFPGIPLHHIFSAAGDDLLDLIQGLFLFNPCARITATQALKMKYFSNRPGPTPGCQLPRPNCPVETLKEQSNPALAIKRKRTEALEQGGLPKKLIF

[2] = Inhibition of CAMK2
[3] = Inhibition of PKA
MCF7 [4] = assay: Cytotoxicity against human MCF7 cells after 96 hrs by MTT assay; type: functional, cell-based; settings: MCF7, 96 h
HeLa [5] = assay: Cytotoxicity against human HeLa cells after 96 hrs by MTT assay; type: functional, cell-based
COLO 205 = assay: Cytotoxicity against human COLO205 cells after 96 hrs by MTT assay; type: functional, cell-based; settings: COLO 205, 96 h
HCT-116 = assay: Cytotoxicity against human HCT116 cells after 96 hrs by MTT assay; type: functional, cell-based; settings: HCT-116, 96 h
MV4-11 = assay: Cytotoxicity against human MV4-11 cells after 96 hrs by MTT assay; type: functional, cell-based; settings: MV4-11, 96 h
HL-60 = assay: Cytotoxicity against human HL60 cells after 96 hrs by MTT assay; type: functional, cell-based; settings: HL-60, 96 h
BXPC-3 = assay: Cytotoxicity against human BxPC3 cells after 96 hrs by MTT assay; type: functional, cell-based; settings: BXPC-3, 96 h
HuP-T4 = assay: Cytotoxicity against human HUPT4 cells after 96 hrs by MTT assay; type: functional, cell-based; settings: HuP-T4, 96 h
SAOS-2 = assay: Cytotoxicity against human Saos2 cells after 96 hrs by MTT assay; type: functional, cell-based; settings: SAOS-2, 96 h
MCF7 [6] = assay: Induction of p53 protein expression in human MCF7 cells at 0.07 to 10 uM after 7 hrs by fluorescent microscopy; type: functional, cell-based
U2OS = assay: Inhibition of Aurora kinase in asynchronous human U2OS cells assessed as reduction of histone H3 serine-10 phosphorylation at 150 nM after 7 hrs immunofluorescence microscopy; type: cell-based
A549 [7] = assay: Effect on mitotic index in asynchronous human A549 cells assessed as appearance of misaligned chromosomes with shortened spindle fibres at 0.5 uM after 8 hrs […]; type: functional, cell-based
A549 [8] = assay: Cell cycle arrest in asynchronous human A549 cells assessed as accumulation of cyclin B1-negative tetraploid cells at G1 phase at 0.5 to 2 uM after 7 hrs by FACS analysis; type: functional, cell-based
A549 [9] = assay: Cell cycle arrest in asynchronous human A549 cells assessed as accumulation of cyclin B1-negative tetraploid cells at G1 phase at 0.5 to 2 uM after 24 hrs by FACS analysis; type: functional, cell-based
[10] = Octanol-aqueous buffer partition coefficient, log D at pH 7.4 by shake-flask method; type: physicochemical
[11] = Dissociation constant, pKa by pH-metric titration method; type: physicochemical
[12] = Aqueous solubility by turbidimetric analysis; type: physicochemical
Liver microsomes = assay: Intrinsic clearance in rat liver microsomes by LC/MS/MS analysis; type: ADME, Microsome
[13] = Half life in rat liver microsomes by LC/MS/MS analysis; type: ADME, Microsome
[14] = Elimination half life in Wistar rat at 10 mg/kg, po by LC/MS/MS analysis; type: ADME, organism-based; design: dose 10 mg/kg, route oral; settings: in vivo, read-out: beta t1/2 (converted)
[15] = Clearance in Wistar rat at 10 mg/kg, po after 24 hrs by LC/MS/MS analysis; type: ADME, organism-based; design: dose 10 mg/kg, route oral; settings: in vivo
Cytochrome P450 1A = Cytochrome P450 1A (Homo sapiens, UniProt P04798+P05177); assay: Inhibition of human recombinant CYP1A at 5 uM; type: ADME; settings: recombinant enzyme
Cytochrome P450 2C19 = Cytochrome P450 2C19 (Homo sapiens, UniProt P33261); assay: Inhibition of human recombinant CYP2C19 at 5 uM; type: ADME; settings: recombinant enzyme
Chain of Cytochrome P450 2C19 (P33261 whole entry): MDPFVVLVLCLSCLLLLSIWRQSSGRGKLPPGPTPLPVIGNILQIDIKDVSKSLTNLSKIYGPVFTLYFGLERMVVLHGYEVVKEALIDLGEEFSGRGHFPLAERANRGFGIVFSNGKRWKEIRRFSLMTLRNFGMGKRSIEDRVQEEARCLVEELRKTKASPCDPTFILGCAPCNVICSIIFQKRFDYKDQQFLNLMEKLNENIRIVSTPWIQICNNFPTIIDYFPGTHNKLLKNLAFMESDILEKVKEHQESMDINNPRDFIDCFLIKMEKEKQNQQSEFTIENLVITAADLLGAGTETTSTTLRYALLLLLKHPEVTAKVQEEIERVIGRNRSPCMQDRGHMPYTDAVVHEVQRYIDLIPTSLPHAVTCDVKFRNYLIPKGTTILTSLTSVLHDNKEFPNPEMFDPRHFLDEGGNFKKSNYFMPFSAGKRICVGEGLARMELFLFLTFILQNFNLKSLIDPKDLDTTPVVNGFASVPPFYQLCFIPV

Cytochrome P450 3A4 = Cytochrome P450 3A4 (Homo sapiens, UniProt P08684); assay: Inhibition of human recombinant CYP3A4 at 5 uM; type: ADME; settings: recombinant enzyme
Chain of Cytochrome P450 3A4 (P08684 whole entry): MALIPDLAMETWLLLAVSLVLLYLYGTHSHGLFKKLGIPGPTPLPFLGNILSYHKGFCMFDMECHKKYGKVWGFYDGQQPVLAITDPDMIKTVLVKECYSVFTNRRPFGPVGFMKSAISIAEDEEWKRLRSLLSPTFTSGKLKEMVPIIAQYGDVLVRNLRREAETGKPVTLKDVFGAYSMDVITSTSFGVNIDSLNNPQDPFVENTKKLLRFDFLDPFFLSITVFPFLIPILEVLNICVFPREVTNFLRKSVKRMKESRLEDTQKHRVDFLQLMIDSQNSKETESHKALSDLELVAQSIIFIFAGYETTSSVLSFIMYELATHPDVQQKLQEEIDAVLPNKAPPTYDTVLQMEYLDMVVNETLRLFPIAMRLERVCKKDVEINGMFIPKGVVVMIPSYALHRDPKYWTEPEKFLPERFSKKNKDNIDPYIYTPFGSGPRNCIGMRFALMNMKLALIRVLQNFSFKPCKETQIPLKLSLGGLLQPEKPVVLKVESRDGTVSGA

CYP1A2 = assay: In vitro elimination half life at 5 uM in presence of human recombinant CYP1A2; type: ADME; settings: read-out: beta t1/2
SW-620 [16] = assay: Effect on mitotic index in human SW620 cells assessed as appearance of polyploid cells at 1 uM after 48 hrs by propidium iodide staining-based FACS analysis; type: functional, cell-based
HeLa [17] = assay: Inhibition of Aurora kinase in human HeLa cells assessed as complete inhibition of histone H3 phosphorylation at 1.25 uM after 7 hrs by Western blot analysis; type: cell-based
HeLa [18] = assay: Inhibition of Aurora kinase in human HeLa cells assessed as reduction of histone H3 serine-10 phosphorylation at 1 uM after 7 hrs immunofluorescence microscopy; type: cell-based
SW-620 [19] = assay: Induction of apoptosis in human SW620 cells assessed as early apoptotic cells at 1 uM after 24 hrs by TUNEL assay; type: functional
SW-620 [20] = assay: Induction of apoptosis in human SW620 cells assessed as late apoptotic cells at 1 uM after 24 hrs by TUNEL assay; type: functional
[21] = target: Aurora kinase A (Homo sapiens) (UniProt O14965); assay: Inhibition of Aurora A phosphorylation in human A549 cells at 0.15 to 5 uM after 1 hr by Western blot analysis in presence of nocodazole and proteasome inhibitor MG132; type: cell-based
Chain of Aurora kinase A (Homo sapiens) (O14965 whole entry): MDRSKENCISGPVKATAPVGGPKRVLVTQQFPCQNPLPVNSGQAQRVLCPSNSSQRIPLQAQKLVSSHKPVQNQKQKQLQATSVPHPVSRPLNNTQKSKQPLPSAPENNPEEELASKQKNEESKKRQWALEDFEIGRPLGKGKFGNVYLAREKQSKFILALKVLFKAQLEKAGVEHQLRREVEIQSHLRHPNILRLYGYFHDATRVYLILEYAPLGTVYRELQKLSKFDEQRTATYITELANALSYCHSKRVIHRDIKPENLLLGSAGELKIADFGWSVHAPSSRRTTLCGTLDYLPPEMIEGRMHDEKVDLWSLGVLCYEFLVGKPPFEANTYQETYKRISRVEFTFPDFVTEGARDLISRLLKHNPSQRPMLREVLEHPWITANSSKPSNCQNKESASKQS

NCI-H460 [22] = assay: Antitumor activity against human NCI-H460 cells xenografted in athymic mouse assessed as reduction in tumor volume at 100 mg/kg, po administered QD on day 1 after implantation for 5 days; type: functional, organism-based; design: dose 100 mg/kg
NCI-H460 [23] = assay: Antitumor activity against human NCI-H460 cells xenografted in athymic mouse assessed as reduction in tumor volume at 75 mg/kg, po administered QD on day 1 after implantation for 5 days; type: functional, organism-based; design: dose 75 mg/kg
NCI-H460 [24] = assay: Antitumor activity against human NCI-H460 cells xenografted in athymic mouse assessed as reduction in mean tumor volume at 100 mg/kg, po administered QD on day 1 after implantation for 5 days measured on day 6 relative to control; type: functional; design: scale not given: the % may be the effect or the level left
Mus musculus = assay: Toxicity in athymic mouse xenografted with human NCI-H460 cells assessed as body weight loss at 100 mg/kg, po administered QD on day 1 after implantation for 5 days measured on day 8; type: organism-based; design: dose 100 mg/kg, route oral; settings: in vivo, 120 h
[25] = Inhibition of Aurora kinase in human A549 cells assessed as concentration required for half-maximal inhibition of histone H3 serine-10 phosphorylation after 7 hrs immunofluorescence microscopy; type: cell-based; settings: A549, 7 h
Aurora kinase B = Aurora kinase B (Homo sapiens, UniProt Q96GD4); settings: A549, 0.15 to 5 uM
Chain of Aurora kinase B (Q96GD4 whole entry): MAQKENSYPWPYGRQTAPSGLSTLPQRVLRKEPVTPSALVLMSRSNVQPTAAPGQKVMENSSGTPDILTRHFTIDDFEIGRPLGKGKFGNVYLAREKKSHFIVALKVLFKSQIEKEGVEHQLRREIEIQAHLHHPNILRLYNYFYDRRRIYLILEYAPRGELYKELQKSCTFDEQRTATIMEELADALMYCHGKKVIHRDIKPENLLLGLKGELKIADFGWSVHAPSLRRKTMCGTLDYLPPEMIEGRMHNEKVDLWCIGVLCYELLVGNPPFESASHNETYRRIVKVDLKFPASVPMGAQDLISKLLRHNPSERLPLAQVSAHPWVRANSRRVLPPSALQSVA
Description: Inhibition of Aurora B phosphorylation in human A549 cells at 0.15 to 5 uM after 1 hr by Western blot analysis in presence of nocodazole and proteasome inhibitor MG132

[26] = Antitumor activity against mouse P388D1 cells xenografted in BALB/c mouse assessed as increase in life span at 45 mg/kg, po administered BID on days 1-3 and 7-9 after tumor implantation relative to control
[27] = Antitumor activity against mouse P388D1 cells xenografted in BALB/c mouse assessed as increase in life span at 67 mg/kg, po administered BID on days 1-3 and 7-9 after tumor implantation relative to control

Work on `Cc1nc(N)sc1-c1ccnc(Nc2ccc(N3CCOCC3)cc2)n1` [CYC-116] yielded an IC50 (A2780) of 170 nM, an IC50 (MIA PaCa-2) of 278 nM and a Ki [1] greater than 10000 nM. For the same compound, the Ki [2] was greater than 10000 nM, the Ki [3] was greater than 10000 nM and the IC50 (MCF7 [4]) was 599 nM. It also gave an IC50 (HeLa [5]) of 590 nM, an IC50 (COLO 205) of 241 nM and an IC50 (HCT-116) of 340 nM. The IC50 (MV4-11) was 34 nM, the IC50 (HL-60) was 372 nM and the IC50 (BXPC-3) was 1630 nM. The IC50 (HuP-T4) was 775 nM, the IC50 (SAOS-2) was 110 nM and the Activity (MCF7 [6]) was “inactive”. The Activity (U2OS) was “inactive”, the Activity (A549 [7]) was “Active” and the Activity (A549 [8]) was “Active”. The Activity (A549 [9]) was “Active”, the logD [10] was 2.74 and the pKa [11] was 4.4. It also gave a solubility kinetic [12] of 10.5 µM (≈ 3.87 µg/mL), a clearance (Liver microsomes) of 42.3 µL/min/mg and a half-life [13] of 0.547 h. The half-life [14] was 3 h, the CL/F [15] was 33.3 mL/min/kg and the “inhibition (INH)” value (Cytochrome P450 1A) was “Active”. For the same compound, the “inhibition (INH)” value (Cytochrome P450 2C19) was “Active”, the “inhibition (INH)” value (Cytochrome P450 3A4) was “Active” and the half-life at 5 µM (CYP1A2) was 1.2 h. For the same compound, the Activity (SW-620 [16]) was “Active”, the inhibition (HeLa [17]) was “Active” and the inhibition (HeLa [18]) was “Active”. For the same compound, the Activity (SW-620 [19]) was 91%, the Activity (SW-620 [20]) was 9.3% and the inhibition [21] was “Active”. For the same compound, the Activity (NCI-H460 [22]) was “Active”, the Activity (NCI-H460 [23]) was “Active” and the Activity (NCI-H460 [24]) was 40%. For the same compound, the Activity (Mus musculus) was “Toxic”, the IC50 [25] was 480 nM and the inhibition (Aurora kinase B) was “Active”. The Activity [26] was 172% and the Activity [27] was 183%.
